Laboratory results as given in patent publication USRE44733E1, “6-mercapto-cyclodextrin derivatives:reversal agents for drug-induced neuromuscular block” (Merck Sharp & Dohme B.V., priority 1999, dated 2014).

Tested on: neuromuscular block, induced by the muscle relaxant rocuronium bromide (Roc)
Experiment: Reversal of neuromuscular blockade in anaesthetized guinea pigs in vivo
Settings: for concentration at maximum reversal (at conc.) / % max reversal: anaesthetized guinea pigs, rocuronium bromide steady-state block; for concentration at maximum reversal (at conc.): dose of reversal agent at which % max reversal was seen; for % max reversal: maximum reversal; for ED50: dose producing 50% reversal of steady-state neuromuscular block: anaesthetized male Dunkin-Hartley guinea pigs, steady-state block of 85-90% by continuous rocuronium bromide infusion, reversal agent given by jugular vein catheter, M. gastrocnemius contractions
Method: Reversal of Neuromuscular Blockade in Anaesthetized Guinea Pigs in vivo
Male Dunkin-Hartley guinea pigs (bodyweight: 600-900 g) were anaesthetized by i.p. administration of 10 mg/kg pentobarbitone and 1000 mg/kg urethane. After tracheotomy, the animals were artificially ventilated using a Harvard small animal ventilator. A catheter was placed into the carotid artery for continuous monitoring of arterial blood pressure and the taking of blood samples for blood gas analysis. Heart rate was derived from the blood pressure signal. The sciatic nerve was stimulated (rectangular pulses of 0.5 ms duration at 10 s (0.1 Hz) intervals at a supramaximal voltage, using a Grass S88 Stimulator) and the force of M. gastrocnemius contractions was measured using a Grass FT03 force-displacement transducer. Contractions, blood pressure and heart rate were recorded on a multichannel Grass 7D recorder. Catheters were placed in both jugular veins. One catheter was used for the continuous infusion of a neuromuscular blocking agent. The infusion rate of the neuromuscular blocking agent was increased until a steady-state block of 85-90% was obtained. The other catheter was used for administration of increasing doses of the reversal agent. During continuous infusion of the neuromuscular blocking agent, single doses of increasing concentration of reversal agent were given. At the end of the experiment, the measured force of muscle contractions was plotted against the concentration of reversal agent, and using regression analysis techniques, the 50% reversal concentration was calculated. Results for the reversal of the neuromuscular block, induced by the muscle relaxant rocuronium bromide (Roc), by the 6-mercapto-cyclodextrin derivatives of Examples 1-19 are presented in Table I. For comparison, the reversal activity of the parent compounds β-cyclodextrin and γ-cyclodextrin are included as well.

Compound	concentration at maximum reversal (at conc.)	% max reversal	ED50: dose producing 50% reversal of steady-state neuromuscular block
O=C([O-])CCCCCSC[C@H]1O[C@@H]2O[C@H]3[C@H](O)[C@@H](O)[C@@H](O[C@H]4[C@H](O)[C@@H](O)[C@@H](O[C@H]5[C@H](O)[C@@H](O)[C@@H](O[C@H]6[C@H](O)[C@@H](O)[C@@H](O[C@H]7[C@H](O)[C@@H](O)[C@@H](O[C@H]8[C@H](O)[C@@H](O)[C@@H](O[C@H]9[C@H](O)[C@@H](O)[C@@H](O[C@H]1[C@H](O)[C@H]2O)O[C@@H]9CSCCCCCC(=O)[O-])O[C@@H]8CSCCCCCC(=O)[O-])O[C@@H]7CSCCCCCC(=O)[O-])O[C@@H]6CSCCCCCC(=O)[O-])O[C@@H]5CSCCCCCC(=O)[O-])O[C@@H]4CSCCCCCC(=O)[O-])O[C@@H]3CSCCCCCC(=O)[O-].[Na+].[Na+].[Na+].[Na+].[Na+].[Na+].[Na+].[Na+] [example 5, 6-Per-deoxy-6-per-(5-carboxypentyl)thio-γ-cyclodextrin, Sodium Salt]	(2.5) μmol · kg^−1	78%	0.74 µmol/kg
CNC(=O)CSCC1OC2OC3C(CSCC(=O)NC)OC(OC4C(CSCC(=O)NC)OC(OC5C(CSCC(=O)NC)OC(OC6C(CSCC(=O)NC)OC(OC7C(CSCC(=O)NC)OC(OC8C(CSCC(=O)NC)OC(OC9C(CSCC(=O)NC)OC(OC1C(O)C2O)C(O)C9O)C(O)C8O)C(O)C7O)C(O)C6O)C(O)C5O)C(O)C4O)C(O)C3O (stereo not drawn) [example 14, 6-Per-deoxy-6-per(N-methylamidomethyl)thio-γ-cyclodextrin]	(7.3) μmol · kg^−1	102%	1.54 µmol/kg
CC(CSC[C@H]1O[C@@H]2O[C@H]3[C@H](O)[C@@H](O)[C@@H](O[C@H]4[C@H](O)[C@@H](O)[C@@H](O[C@H]5[C@H](O)[C@@H](O)[C@@H](O[C@H]6[C@H](O)[C@@H](O)[C@@H](O[C@H]7[C@H](O)[C@@H](O)[C@@H](O[C@H]8[C@H](O)[C@@H](O)[C@@H](O[C@H]9[C@H](O)[C@@H](O)[C@@H](O[C@H]1[C@H](O)[C@H]2O)O[C@@H]9CSCC(C)C(=O)[O-])O[C@@H]8CSCC(C)C(=O)[O-])O[C@@H]7CSCC(C)C(=O)[O-])O[C@@H]6CSCC(C)C(=O)[O-])O[C@@H]5CSCC(C)C(=O)[O-])O[C@@H]4CSCC(C)C(=O)[O-])O[C@@H]3CSCC(C)C(=O)[O-])C(=O)[O-].[Na+].[Na+].[Na+].[Na+].[Na+].[Na+].[Na+].[Na+] (stereo partly drawn) [example 15, 6-Per-deoxy-6-per(2-carboxypropyl)thio-γ-cyclodextrin, Sodium Salt]	(0.48) μmol · kg^−1	103%	0.10 µmol/kg
O=C([O-])CCSC[C@H]1O[C@@H]2O[C@H]3[C@H](O)[C@@H](O)[C@@H](O[C@H]4[C@H](O)[C@@H](O)[C@@H](O[C@H]5[C@H](O)[C@@H](O)[C@@H](O[C@H]6[C@H](O)[C@@H](O)[C@@H](O[C@H]7[C@H](O)[C@@H](O)[C@@H](O[C@H]8[C@H](O)[C@@H](O)[C@@H](O[C@H]9[C@H](O)[C@@H](O)[C@@H](O[C@H]1[C@H](O)[C@H]2O)O[C@@H]9CSCCC(=O)[O-])O[C@@H]8CSCCC(=O)[O-])O[C@@H]7CSCCC(=O)[O-])O[C@@H]6CSCCC(=O)[O-])O[C@@H]5CSCCC(=O)[O-])O[C@@H]4CSCCC(=O)[O-])O[C@@H]3CSCCC(=O)[O-].[Na+].[Na+].[Na+].[Na+].[Na+].[Na+].[Na+].[Na+] [example 4, 6-Per-deoxy-6-per-(2-carboxyethyl)thio-γ-cyclodextrin, Sodium Salt]	(0.53) μmol · kg^−1	97%	0.09 µmol/kg
O=C([O-])CCCSCC1OC2OC3C(CSCCCC(=O)[O-])OC(OC4C(CSCCCC(=O)[O-])OC(OC5C(CSCCCC(=O)[O-])OC(OC6C(CSCCCC(=O)[O-])OC(OC7C(CSCCCC(=O)[O-])OC(OC8C(CSCCCC(=O)[O-])OC(OC1C(O)C2O)C(O)C8O)C(O)C7O)C(O)C6O)C(O)C5O)C(O)C4O)C(O)C3O.[Na+].[Na+].[Na+].[Na+].[Na+].[Na+].[Na+] (stereo not drawn) [example 16, 6-Per-deoxy-6-per(3-carboxypropyl)thio-β-cyclodextrin, Sodium Salt]	(3.2) μmol · kg^−1	100%	0.5 µmol/kg
O=C([O-])Cc1ccc(SC[C@H]2O[C@@H]3O[C@H]4[C@H](O)[C@@H](O)[C@@H](O[C@H]5[C@H](O)[C@@H](O)[C@@H](O[C@H]6[C@H](O)[C@@H](O)[C@@H](O[C@H]7[C@H](O)[C@@H](O)[C@@H](O[C@H]8[C@H](O)[C@@H](O)[C@@H](O[C@H]9[C@H](O)[C@@H](O)[C@@H](O[C@H]%10[C@H](O)[C@@H](O)[C@@H](O[C@H]2[C@H](O)[C@H]3O)O[C@@H]%10CSc2ccc(CC(=O)[O-])cc2)O[C@@H]9CSc2ccc(CC(=O)[O-])cc2)O[C@@H]8CSc2ccc(CC(=O)[O-])cc2)O[C@@H]7CSc2ccc(CC(=O)[O-])cc2)O[C@@H]6CSc2ccc(CC(=O)[O-])cc2)O[C@@H]5CSc2ccc(CC(=O)[O-])cc2)O[C@@H]4CSc2ccc(CC(=O)[O-])cc2)cc1.[Na+].[Na+].[Na+].[Na+].[Na+].[Na+].[Na+].[Na+] [example 9, 6-Per-deoxy-6-per-(4-carboxymethylphenyl)thio-γ-cyclodextrin, Sodium Salt]	(0.50) μmol · kg^−1	100%	0.13 µmol/kg
O=C([O-])c1cccc(SCC2OC3OC4C(CSc5cccc(C(=O)[O-])c5)OC(OC5C(CSc6cccc(C(=O)[O-])c6)OC(OC6C(CSc7cccc(C(=O)[O-])c7)OC(OC7C(CSc8cccc(C(=O)[O-])c8)OC(OC8C(CSc9cccc(C(=O)[O-])c9)OC(OC9C(CSc%10cccc(C(=O)[O-])c%10)OC(OC%10C(CSc%11cccc(C(=O)[O-])c%11)OC(OC2C(O)C3O)C(O)C%10O)C(O)C9O)C(O)C8O)C(O)C7O)C(O)C6O)C(O)C5O)C(O)C4O)c1.[Na+].[Na+].[Na+].[Na+].[Na+].[Na+].[Na+].[Na+] (stereo not drawn) [example 3, 6-Per-deoxy-6-per-(3-carboxyphenyl)thio-γ-cyclodextrin, Sodium Salt]	(1.28) μmol · kg^−1	102%	0.28 µmol/kg
O=C([O-])CSC[C@H]1O[C@@H]2O[C@H]3[C@H](O)[C@@H](O)[C@@H](O[C@H]4[C@H](O)[C@@H](O)[C@@H](O[C@H]5[C@H](O)[C@@H](O)[C@@H](O[C@H]6[C@H](O)[C@@H](O)[C@@H](O[C@H]7[C@H](O)[C@@H](O)[C@@H](O[C@H]8[C@H](O)[C@@H](O)[C@@H](O[C@H]9[C@H](O)[C@@H](O)[C@@H](O[C@H]1[C@H](O)[C@H]2O)O[C@@H]9CSCC(=O)[O-])O[C@@H]8CSCC(=O)[O-])O[C@@H]7CSCC(=O)[O-])O[C@@H]6CSCC(=O)[O-])O[C@@H]5CSCC(=O)[O-])O[C@@H]4CSCC(=O)[O-])O[C@@H]3CSCC(=O)[O-].[Na+].[Na+].[Na+].[Na+].[Na+].[Na+].[Na+].[Na+] [example 7, 6-Per-deoxy-6-per-carboxymethylthio-γ-cyclodextrin, Sodium Salt]	(1.92) μmol · kg^−1	88%	0.21 µmol/kg
O=C([O-])c1ccc(SCC2OC3OC4C(CO)OC(OC5C(CO)OC(OC6C(CO)OC(OC7C(CO)OC(OC8C(CO)OC(OC9C(CO)OC(OC%10C(CO)OC(OC2C(O)C3O)C(O)C%10O)C(O)C9O)C(O)C8O)C(O)C7O)C(O)C6O)C(O)C5O)C(O)C4O)cc1.[Na+] (stereo not drawn) [example 1, 6-mono-Deoxy-6-mono-(4-carboxyphenyl)thio-γ-cyclodextrin, Sodium Salt]	(8.0) μmol · kg^−1	102%	0.94 µmol/kg
OCCSC[C@H]1O[C@@H]2O[C@H]3[C@H](O)[C@@H](O)[C@@H](O[C@H]4[C@H](O)[C@@H](O)[C@@H](O[C@H]5[C@H](O)[C@@H](O)[C@@H](O[C@H]6[C@H](O)[C@@H](O)[C@@H](O[C@H]7[C@H](O)[C@@H](O)[C@@H](O[C@H]8[C@H](O)[C@@H](O)[C@@H](O[C@H]9[C@H](O)[C@@H](O)[C@@H](O[C@H]1[C@H](O)[C@H]2O)O[C@@H]9CSCCO)O[C@@H]8CSCCO)O[C@@H]7CSCCO)O[C@@H]6CSCCO)O[C@@H]5CSCCO)O[C@@H]4CSCCO)O[C@@H]3CSCCO [example 13, 6-Per-deoxy-6-per(2-hydroxyethyl)thio-γ-cyclodextrin]	(2.0) μmol · kg^−1	96%	0.20 µmol/kg
